Columns and labels:
[1] = system: procaspase-6 cleavage in HepG2 cells; experiment: Procaspase-6 cleavage induced by TNFα and CHX in HepG2 cells (IB); type: cell-based; conditions: 40 μM pretreatment 1 hr, then 30 μg/ml CHX and 50 ng/ml TNFα 2 hrs
Method: FIGS. 15A-15F. AMPK phosphorylates caspase-6 and inhibits its cleavage. FIG. 15A. Caspase-6 activity was measure in the lysates from isolated primary hepatocytes treated with vehicle or 250 μM BSA-conjugated palmitic acid (PA) or 50 ng/ml TNFα for 2 hrs. Data are shown as mean±SD. *, P<0.05, Student's unpaired t test. FIG. 15B. HepG2 cells were pretreated with 40 μM A-769662 for 1 hr, and then treated with 30 μg/ml cycloheximide (CHX) and 50 ng/ml TNFα for 2 hrs. Cell lysates were subject to immunoblot (IB) analysis. FIG. 15C. In vitro kinase assay using purified caspase-6-mycexpressed in HEK293T cells, and recombinant AMPKα1β1γ1 active kinase. FIGS. 15D-15E. Flox and LAKO mice were fed with CD-HFD for 8 weeks. After 6 weeks of CD-HFD feeding, mice were intraperitoneally injected with 25 mg/kg A-769662 or vehicle daily for 2 weeks along with continuous CD-HFD feeding. FIG. 15D. […] Quantification of IB analysis in FIG. 15D. n=3. *, P<0.05, two-way ANOVA. […] Quantification of IB analysis in FIG. 5K. n=3. […]
Western blot was performed as previously described(11). […] Supernatants were collected and analyzed with BCA (Thermo Scientific) to quantify protein content. […] Individual proteins were detected with specific antibodies and visualized on film using horseradish peroxidase-conjugated secondary antibodies (Fisher Scientific) and SuperSignal West Pico PLUS Chemilunminescent Substrate (Thermo Scientific).

[2] = system: caspase-6 activity in primary hepatocytes; experiment: Caspase-6 activity induced by palmitic acid in primary hepatocytes; type: cell-based, mice; conditions: 40 μM pretreatment 1 hr, then 250 μM BSA-conjugated palmitic acid 2 hrs
Method: FIGS. 5A-5K. AMPK phosphorylates caspase-6 to inhibit its cleavage and activation. FIG. 5A. Primary hepatocytes were pretreated 40 μM A-769662 for 1 hr, then treated 30 μg/ml CHX and 50 ng/ml TNFα for 2 hrs. IB analysis of cell lysates. n=3. Mean±SD. *, P<0.05, two-way ANOVA. FIG. 5B. Primary hepatocytes were pretreated 40 μM A-769662 for 1 hr, then treated 250 μM BSA-conjugated palmitic acid (PA) for 2 hrs. Cell lysates were subject to caspase-6 activity assay. Mean±SD. *, P<0.05. FIG. 5C. Caspase-6 Ser^257 locates within AMPK substrate motif. FIG. 5C. discloses SEQ ID NOS 57-63, respectively, in order of appearance. FIG. 5D. In vitro kinase assay using recombinant caspase-6, and recombinant AMPKα1β1γ1 or AMPKα2β1γ1 active kinase. FIG. 5E. Alignment of caspase-6 sequence. FIG. 5E. discloses SEQ ID NOS 64-67, respectively, in order of appearance. FIG. 5F. HEK293T cells overexpressing caspase-6-myc WT, S^257A, S^257D or S^257E mutant were treated with 10 μg/ml CHX and 25 ng/ml TNFα for 2 hrs. IB analysis of cell lysates. FIGS. 5G-5J. […] Quantification of aCasp6 staining per field in FIG. 5I. n=7. […]
Cell/tissue was homogenized with lysis buffer. Caspase-6 activity was determined with Caspase-6 Colorimetric Assay Kit (Biovision, Cat. K115), according to manufacturer's instruction. […]

N#Cc1c(O)c2c(-c3ccc(-c4ccccc4O)cc3)csc2[nH]c1=O [A-769662]
procaspase-6 cleavage [1]: significantly inhibited | induction of caspase-6 activity by PA [2]: inhibited

From patent US20220184172A1, “AMPK/CASPASE-6 AXIS CONTROLS LIVER DAMAGE IN NONALCOHOLIC STEATOHEPATITIS” (The Regents of the University of California, priority 2019, published 2022)
